The values below come from PubChem BioAssay (NCI).

SMILES strings stand for the structures.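 Compound exposure: 48 hours, 5 concentrations, 96-well plates. The concentration for 50% growth inhibition is given as GI50. TGI is the concentration that stops growth completely.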

Common to all, as to test: NCI tumour cell line growth inhibition, 48 h
Test [1] deals with MALME-3M melanoma.
Test [2] concerns OVCAR-8 ovarian.
Test [3] has as its system OVCAR-4 ovarian.
Test [4] concerns NCI-H23 lung.
Test [5] has as its system RPMI-8226 leukemia.
Test [6] relates to SK-MEL-5 melanoma.
Test [7] deals with SR leukemia.
Test [8] deals with SF-295 CNS.
Test [9] relates to MCF7 breast.
The test system of test [10] is BT-549 breast.

As to `COC(=O)C(=O)C(CC(=O)Nc1cccc(C(F)(F)F)c1)C(=O)OC` (stereo unspecified), the TGI in [1], in [2], in [3], in [4], in [5] and in test [6] was > 100 µM throughout.
On to `CCN(CC)CCC(=O)/C=C/c1ccc(C)cc1`, for which the TGI is 34 µM in [1]; 33.3 µM in test [7]; 32.4 µM in test [2]; 34.6 µM in [8]; 32.7 µM in test [3]; 32.4 µM in [4]. For the same molecule, the TGI in test [5] is > 100 µM; in test [6] it was 30.2 µM.
With `O=C(NC(=O)c1cc2cc(Br)cc(Br)c2oc1=O)Oc1ccccc1`, the TGI in [1], in test [2], in test [8], in test [3], in [4] and in test [5] was > 100 µM each time. The TGI in test [6] was > 100 µM.
In the case of `CC(C)(C)N=CN(C=C(c1ccccc1)c1ccccc1)C1CCCCC1`, the TGI in [1] was 35.8 µM; in test [7] it was 51 µM; in test [2] it was > 100 µM; in [8] it was 93.3 µM; in [3], > 100 µM; in [4], > 100 µM. The molecule also gave a TGI in test [6] of 31.8 µM.
For `CC(=O)c1cccc(NC(=O)c2ccc(NC3=C(Cl)C(=O)N(Cc4ccccc4)C3=O)cc2)c1`, the GI50 in test [2] is 14.3 µM; in test [8], 15.3 µM; in test [3], 24.9 µM; in [4], 23 µM; in test [5], 3.31 µM; in test [9], 9.34 µM. Further, the GI50 in [6] is 12500 nM; in [10], 8.8 µM. The TGI in [2] was 50.7 µM; in test [8], 47.8 µM; in test [3], 92.2 µM; in test [4] it was 43.7 µM; in [5], 15.1 µM; in test [9], > 100 µM. The TGI in [6] was 27.7 µM; in test [10], 27.9 µM.
Take `COc1cc2ccc(CC(N)=O)cc2cc1OC`: the TGI in test [1], in [2], in [8], in test [3], in test [4] and in test [5] was > 100 µM each time. Also, in test [6], the TGI was > 100 µM.
With `C/C=C1\CCC2c3[nH]c4ccccc4c3CCN2C1` (stereo unspecified), the TGI in test [1], in [7], in test [2], in [8], in test [3] and in test [4] was > 100 µM throughout. For the same molecule, in test [6], the TGI is > 100 µM.
For `O=C1c2c(c3c4ccccc4[nH]c3c3[nH]c4ccccc4c23)C(=O)N1Cc1ccccc1`, the TGI was 11.9 µM in test [1]; 13.8 µM in [2]; 13.3 µM in test [8]; 10.5 µM in test [3]; 6.16 µM in test [4]; 6.74 µM in test [5]. This molecule gave a TGI in test [6] of 3.56 µM.
Turning to `COc1cc2c(cc1OC)[C@@H]([C@H](O)c1ccccc1)NCC2`, the TGI in test [1], in test [7], in [2], in test [8], in [3] and in test [4] was > 100 µM throughout. Moreover, the TGI in test [5] and in test [6] was > 100 µM each time.
With `Clc1ccc(C2=NOC3C4CCC(C4)C23)cc1` (stereo unspecified), the TGI in [1], in test [7], in test [2], in test [8], in [3] and in test [4] was > 100 µM throughout. The TGI in test [5] and in test [6] was > 100 µM in each case.
As for `O=C1CCC2(c3ccccc3)Nc3ccc(Cl)cc3N12` (stereo unspecified), the TGI in test [1], in test [2], in [8], in [3], in [4] and in test [5] was > 100 µM throughout. Moreover, the TGI in [6] was > 100 µM.
With `CCCCN1CCN(c2ccc3nc(-c4ccc5nc(-c6ccc(OCC)c(OCC)c6)[nH]c5c4)[nH]c3c2)CC1`, the GI50 was 312 nM in [7], 1.48 µM in test [3], 0.436 µM in [5] and 1090 nM in test [6]. Also, the TGI in test [7] was determined as 1.19 µM; in test [3], 3.21 µM; in test [5] it was 2.06 µM; in test [6] it was 3.16 µM.
As to `Cc1cn2c(/C=N/N=C(N)N)c(-c3ccsc3)nc2s1`, the GI50 in test [2] is 16.2 µM; in [8], 9.98 µM; in test [4] it was 15.8 µM; in [5] it was 3.69 µM; in test [9], 3.43 µM; in test [6], 2710 nM. The GI50 in test [10] is 15 µM. Besides, the TGI in [2] came to 34.4 µM; in [8], 22.9 µM; in test [4], 30.5 µM; in [5] it was 16 µM; in [9], 14.8 µM; in test [6] it was 5.19 µM. Further, the TGI in test [10] turned out to be 29.5 µM.
For `O=C(Sc1sc(=S)sc1SC(=O)c1ccccc1)c1ccccc1`, the TGI in [1], in test [2], in [8], in [3], in test [4] and in test [5] was > 100 µM throughout. Besides, the TGI in test [6] was > 100 µM.
For `Cc1cc2c(=O)cc(-c3ccc(F)cc3)oc2c(C(=O)O)c1C`, the TGI in test [1], in test [2], in test [8], in test [3], in test [4] and in [5] was > 100 µM each time. In test [6], the TGI was > 100 µM.
In the case of `Cc1ccc2c(CC(=O)O)cc(=O)oc2c1`, the TGI in test [1], in [2], in [8], in test [3], in [4] and in [5] was > 100 µM in each case. For the same molecule, in test [6], the TGI is > 100 µM.
